Measured values as given in ChEMBL document CHEMBL1201862, “PubChem BioAssay data set” (2004).
The source made the active and inactive calls.

Columns and labels:
[1] = target: T1, Protein Tat (Human immunodeficiency virus type 1 group M subtype B (isolate HXB2)(HIV-1), UniProt P04608); format: functional;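 further: tat binding to TAR RNA read out by fluorescence polarization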
T1 sequence (P04608 whole entry): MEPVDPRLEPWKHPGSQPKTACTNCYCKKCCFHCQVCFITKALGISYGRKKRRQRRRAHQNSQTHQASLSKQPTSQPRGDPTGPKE

[2] = viability loss in THP-1 monocytes – THP-1 cells, cytotoxicity control for Vif-APOBEC3G degradation inhibitor project, dose response (AID 1117359); format: functional; conditions: THP-1
[3] = Luminescence Cell-Based Dose Response HTS to Identify Activators of Luciferase Translation or Activity in H4 […] Cells. [Related pubchem assays: 1829 (Project Summary), 1814 (Primary HTS)]; format: functional
[4] = system: H4; test: Luminescence Cell-Based Dose Response HTS to Identify Activators of 5'UTR Stem-Loop Driven Prion Protein mRNA Translation in H4 Neuroglioblastoma Cells. [Related pubchem assays: 1829 (Project Summary), 1814 (Primary HTS)]; format: functional; conditions: Homo sapiens
[5] = target: Aryl hydrocarbon receptor (Homo sapiens, UniProt P35869); test: Luminescence-based cell-based high throughput dose response assay for activators of the Aryl Hydrocarbon Receptor (AHR). [Related pubchem assays: 2796 (Primary screen (AHR activators in singlicate)), 2845 (Confirmation screen (AHR activators in triplicate)), 434939 (Counterscreen (PXR activators in triplicate)), 2804 (Summary (AHR activators))]; format: ADME
[6] = target: T2, Bcl-2-related protein A1 (Mus musculus, UniProt Q07440); test: small-molecule antagonists of Bfl-1/BH3 interaction – biochemical, TR-FRET, mouse Bfl-1, confirmation (AID 621);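 further: TR-FRET binding of GST-Bfl-1 to FITC-labelled Bid peptide via terbium antibody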
T2 sequence (Q07440 whole entry): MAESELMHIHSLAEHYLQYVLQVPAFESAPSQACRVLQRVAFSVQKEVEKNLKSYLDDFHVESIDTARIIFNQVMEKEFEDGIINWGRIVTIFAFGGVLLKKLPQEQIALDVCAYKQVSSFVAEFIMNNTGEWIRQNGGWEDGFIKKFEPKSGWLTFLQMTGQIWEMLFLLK

[7] = target: T2, Bcl-2-related protein A1; test: Bfl-1 binding inhibitors, SAR follow-up, biochemical, fluorescence polarization (AID 1070)
[8] = target: Lytic switch protein BZLF1 (Epstein-Barr virus (strain B95-8) (HHV-4) (Human herpesvirus 4), UniProt P03206); test: inhibition of BZLF1 ZTA DNA binding – biochemical, fluorescence polarization, Epstein-Barr virus, 1536-well, counter-screen for EBNA-1 inhibitor project, dose response (AID 2377); parameters: species or system human gammaherpesvirus 4;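 further: fluorescence polarization of Cy5-labelled ZRE DNA probe bound by purified Zta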
[9] = target: Epstein-Barr nuclear antigen 1 (Epstein-Barr virus (strain B95-8) (HHV-4) (Human herpesvirus 4), UniProt P03211); test: inhibition of EBV nuclear antigen 1 DNA binding – biochemical, fluorescence polarization, 1536-well, dose response (AID 2381); parameters: species or system human gammaherpesvirus 4;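 further: fluorescence polarization of a Cy5 DNA probe bound by EBNA-1 protein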
[10] = target: Sphingosine 1-phosphate receptor 2 (Homo sapiens, UniProt O95136); test: Dose Response Cell Based Assay for Antagonists of the S1P2 Receptor. [Related pubchem assays: 856, 736 ]; format: functional
[11] = M. tuberculosis H37Rv growth inhibitors, H37Rv strain (AID 1626); format: functional
[12] = microbe, parasite or virus in culture; format: functional; conditions: Mycobacterium tuberculosis
[13] = cells; format: functional

Chain of Aryl hydrocarbon receptor (P35869 whole entry): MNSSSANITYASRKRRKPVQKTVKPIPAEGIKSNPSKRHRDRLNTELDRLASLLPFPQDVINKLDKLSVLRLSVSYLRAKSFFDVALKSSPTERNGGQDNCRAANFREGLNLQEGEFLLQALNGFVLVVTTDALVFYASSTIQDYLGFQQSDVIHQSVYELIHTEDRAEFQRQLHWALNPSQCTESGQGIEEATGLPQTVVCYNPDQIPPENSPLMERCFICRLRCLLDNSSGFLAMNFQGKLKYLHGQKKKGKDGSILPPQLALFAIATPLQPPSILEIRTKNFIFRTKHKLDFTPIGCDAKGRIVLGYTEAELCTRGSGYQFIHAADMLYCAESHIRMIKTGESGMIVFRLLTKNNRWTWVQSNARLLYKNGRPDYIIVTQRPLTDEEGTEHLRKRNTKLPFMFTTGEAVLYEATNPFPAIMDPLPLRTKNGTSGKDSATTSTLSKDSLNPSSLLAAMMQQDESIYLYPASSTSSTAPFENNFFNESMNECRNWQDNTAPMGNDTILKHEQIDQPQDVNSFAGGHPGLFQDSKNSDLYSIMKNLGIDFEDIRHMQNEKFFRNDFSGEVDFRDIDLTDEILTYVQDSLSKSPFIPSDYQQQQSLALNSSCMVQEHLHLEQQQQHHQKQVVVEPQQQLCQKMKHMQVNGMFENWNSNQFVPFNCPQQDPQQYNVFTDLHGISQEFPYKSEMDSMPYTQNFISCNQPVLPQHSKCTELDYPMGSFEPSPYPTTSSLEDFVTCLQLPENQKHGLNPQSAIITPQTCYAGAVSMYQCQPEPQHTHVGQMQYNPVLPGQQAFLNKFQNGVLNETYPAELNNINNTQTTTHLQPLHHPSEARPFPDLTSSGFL
Chain of Epstein-Barr nuclear antigen 1 (P03211 whole entry): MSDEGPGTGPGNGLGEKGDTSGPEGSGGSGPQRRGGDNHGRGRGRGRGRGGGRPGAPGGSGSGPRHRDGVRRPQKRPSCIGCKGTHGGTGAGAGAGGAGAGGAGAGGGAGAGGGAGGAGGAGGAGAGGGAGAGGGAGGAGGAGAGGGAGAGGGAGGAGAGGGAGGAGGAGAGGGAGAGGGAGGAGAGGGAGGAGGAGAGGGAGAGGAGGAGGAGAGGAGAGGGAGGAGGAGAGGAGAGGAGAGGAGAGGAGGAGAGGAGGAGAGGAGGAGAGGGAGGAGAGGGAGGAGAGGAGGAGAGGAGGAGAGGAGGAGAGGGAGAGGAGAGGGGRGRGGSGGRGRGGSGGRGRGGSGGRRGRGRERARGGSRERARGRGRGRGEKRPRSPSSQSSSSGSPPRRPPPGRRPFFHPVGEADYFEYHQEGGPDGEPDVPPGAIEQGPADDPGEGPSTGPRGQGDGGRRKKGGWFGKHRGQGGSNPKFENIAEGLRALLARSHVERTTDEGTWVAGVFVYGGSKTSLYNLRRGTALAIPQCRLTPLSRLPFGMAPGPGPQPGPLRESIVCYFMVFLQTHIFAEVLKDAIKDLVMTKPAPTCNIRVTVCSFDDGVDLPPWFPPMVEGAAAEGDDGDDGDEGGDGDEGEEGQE
Chain of Lytic switch protein BZLF1 (P03206 whole entry): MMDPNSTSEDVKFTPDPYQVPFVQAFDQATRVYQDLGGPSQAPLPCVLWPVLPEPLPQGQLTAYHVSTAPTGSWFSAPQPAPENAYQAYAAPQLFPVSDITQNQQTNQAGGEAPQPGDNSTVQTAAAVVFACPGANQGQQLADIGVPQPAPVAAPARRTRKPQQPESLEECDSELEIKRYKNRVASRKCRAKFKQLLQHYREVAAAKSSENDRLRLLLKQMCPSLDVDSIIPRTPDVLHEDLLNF
Chain of Sphingosine 1-phosphate receptor 2 (O95136 whole entry): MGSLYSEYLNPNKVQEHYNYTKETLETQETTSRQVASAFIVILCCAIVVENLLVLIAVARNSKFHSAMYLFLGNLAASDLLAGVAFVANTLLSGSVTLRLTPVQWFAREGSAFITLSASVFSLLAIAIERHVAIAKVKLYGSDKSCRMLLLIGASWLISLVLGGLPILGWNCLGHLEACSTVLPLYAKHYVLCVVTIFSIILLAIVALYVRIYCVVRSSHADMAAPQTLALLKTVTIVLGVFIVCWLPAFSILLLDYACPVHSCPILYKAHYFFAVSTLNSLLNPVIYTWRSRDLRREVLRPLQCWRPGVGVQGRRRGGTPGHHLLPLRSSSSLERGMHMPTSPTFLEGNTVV

Cc1nc2cc(NN=C3C(=O)CCCC3=O)ccc2s1
IC50 [1]: > 50 µM (active) | CC50 [2]: > 40 µM (active)

O=C(NC1CCCC1)c1cc2c(ccc3ccccc32)o1
EC50 [3]: 1.94 µM (active) | EC50 [4]: 24.1 µM (active) | EC50 [5]: 2.8 µM (active)

Clc1ccc(-n2nnc(-c3cc4ccccc4nc3Cl)n2)cc1Cl
IC50 [6]: > 100 µM (not active) | IC50 [7]: > 100 µM (not active)

COc1ccc(Cn2cccc(NC(=O)Nc3cccc(C#N)c3)c2=O)cc1
IC50 [8]: > 111 µM (not active) | IC50 [9]: 9.07 µM (active)

COc1ccc(-n2c(SCC(=O)NCC3CCCO3)nc3c4ccccc4nc-3c2O)cc1 (stereo unspecified)
IC50 [8]: > 111 µM (not active) | IC50 [9]: 9.89 µM (active)

NC(=O)c1sc2cc(C(F)(F)F)cnc2c1-c1cccs1
IC50 [10]: > 30 µM (not active)

O=C(Nc1ccccc1Cl)Oc1ccc2ccccc2c1
IC50 [11]: > 100 µM (active)

O=[N+]([O-])c1cnc(Nc2ccc(Cl)cn2)c([N+](=O)[O-])c1
CC50 [12]: > 40 µM (active) | IC50 [13]: 4.17 µM (active) | EC50 [5]: 1.29 µM (active)
